Data set [1] concerns the target Histamine H2 receptor (Cavia porcellus) (UniProt P47747). Put plainly: Histamine H2 receptor blocking activity was determined in the isolated guinea pig right atrium against histamine stimulated tachycardia. In kind it is tissue-based. The settings on record: Cardiac atrium.
The nature of data set [2]: Partition coefficient (logD) (octanol/borax buffer). In kind it is physicochemical.

Some results are limits rather than exact numbers.

Sequence of Histamine H2 receptor (Cavia porcellus) (P47747 whole entry): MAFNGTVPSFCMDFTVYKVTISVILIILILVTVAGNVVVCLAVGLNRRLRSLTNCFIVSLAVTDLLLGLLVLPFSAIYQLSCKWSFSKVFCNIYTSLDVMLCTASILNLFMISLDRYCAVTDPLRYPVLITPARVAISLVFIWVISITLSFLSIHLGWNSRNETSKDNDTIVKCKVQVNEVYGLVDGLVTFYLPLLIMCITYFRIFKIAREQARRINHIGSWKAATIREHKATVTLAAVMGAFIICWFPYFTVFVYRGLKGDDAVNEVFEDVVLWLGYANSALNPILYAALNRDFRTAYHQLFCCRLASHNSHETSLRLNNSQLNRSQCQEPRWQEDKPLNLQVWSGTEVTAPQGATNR

In turn, `Cc1[nH]cnc1CSCCNc1ccnc(O)n1` yielded a -Log KB in data set [1] of less than 4.5. This compound registered a logD in data set [2] of -0.4.

With `Cc1[nH]cnc1CSCCNc1cccc(O)n1`, the -Log KB in data set [1] is less than 4. The compound also gave a logD in data set [2] of 0.79.

Turning to `CNC(=S)NCCSCc1[nH]cnc1C`, the -Log KB in data set [1] came out at 6.04.

In data set [1], `Cc1[nH]cnc1CSCCNC1=NCCS(=O)(=O)N1` gave a -Log KB of 4.57. The logD in data set [2] was -0.74.

Regarding `Cc1[nH]cnc1CSCCNc1nccc(O)n1`, in data set [1], the -Log KB was found to be 5.13. This compound also gave a logD in data set [2] of 0.02.

For `C/N=c1\c(O)c(O)\c1=N\CCSCc1[nH]cnc1C`, the -Log KB in data set [1] came out at 4.23. The logD in data set [2] was -0.08.

`Cc1[nH]cnc1CSCCNc1cc(O)ccn1` had a -Log KB in data set [1] of 4.8. Besides, in data set [2], the logD turned out to be 0.8.

In the case of `Cc1[nH]cnc1CSCCNC1=NC(=O)CN1`, the -Log KB in data set [1] was 4.21. In data set [2], the logD is -0.5.

As for `CN/C(=C/[N+](=O)[O-])NCCSCc1[nH]cnc1C`, in data set [1], the -Log KB came out at 5.85. In data set [2], this compound had a logD of -0.4.

For the compound `CNC(=O)NCCSCc1[nH]cnc1C`, the -Log KB in data set [1] stood at 4.69. Further, the pH-dependent lipophilicity (logD) in data set [2] is -0.06.

`CNC(=N[N+](=O)[O-])NCCSCc1nc[nH]c1C` yielded a logD in data set [2] of 0.13.

As to `Cc1[nH]cnc1CSCCNC1=C([N+](=O)[O-])CCN1`, the -Log KB in data set [1] stood at 6.31. The compound further registered a logD in data set [2] of -0.87.

As to `Cc1[nH]cnc1CSCCNc1[nH]ccc1[N+](=O)[O-]`, the -Log KB in data set [1] worked out at 7.31. The compound also registered a logD in data set [2] of 1.04.

In the case of `C/N=C(/NCCSCc1[nH]cnc1C)N[N+](=O)[O-]`, the -Log KB in data set [1] stood at 5.84.

As for `Cc1[nH]cnc1CSCCNc1nccc(O)c1[N+](=O)[O-]`, the -Log KB in data set [1] stood at 6.44. For the same compound, the pH-dependent lipophilicity (logD) in data set [2] is -0.2.

In the case of `C/N=C(\S)NCCSCc1[nH]cnc1C` [METIAMIDE], the logD in data set [2] turned out to be 0.55.

The logD is lipophilicity at a set pH, counting ionised and neutral species.

These data come from ChEMBL document CHEMBL1123209, “Dipole moment in relation to H2 receptor histamine antagonist activity for cimetidine analogues” (J Med Chem, 1986).
